Measured values from publication PMC6270420, “Antibacterial Activity of Salicylanilide 4-(Trifluoromethyl)benzoates” (Molecules, 2013).
≈ marks a conversion by molar mass, not a printed value. Read-outs that look alike come from different tables or passages of the source.

How the values were obtained:
[1] = system: Mycobacterium tuberculosis 331/88 (H37Rv); test: Antimycobacterial MIC micromethod, Šula's medium; assay type: cell-based; settings: read-out: MIC Mtb. 331/88
[2] = system: Mycobacterium avium 330/88; test: Antimycobacterial MIC micromethod; assay type: cell-based
[3] = system: Mycobacterium kansasii 235/80; test: Antimycobacterial MIC micromethod; assay type: cell-based; settings: read-out: MIC M. kansasii 235/80
[4] = system: M. kansasii 6509/96 (clinically isolated strain); test: Antimycobacterial MIC micromethod; assay type: cell-based; settings: Mycobacterium kansasii, read-out: MIC M. kansasii 6509/96
Mtb. 7357/1988 = test: microbe, parasite or virus in culture; assay type: cell-based; settings: Mycobacterium tuberculosis, read-out: MIC Mtb. 7357/1988
Mtb. 9449/2006 = test: microbe, parasite or virus in culture; assay type: cell-based; settings: Mycobacterium tuberculosis, read-out: MIC Mtb. 9449/2006
Mtb. 53/2009 = test: microbe, parasite or virus in culture; assay type: cell-based; settings: Mycobacterium tuberculosis, read-out: MIC Mtb. 53/2009
Mtb. 234/2005 = test: microbe, parasite or virus in culture; assay type: cell-based; settings: Mycobacterium tuberculosis, read-out: MIC Mtb. 234/2005
Mtb. Praha 1 = test: microbe, parasite or virus in culture; assay type: cell-based; settings: Mycobacterium tuberculosis, read-out: MIC Mtb. Praha 1
Mtb. Praha 131 (XDR-TB) = test: microbe, parasite or virus in culture; assay type: cell-based; settings: Mycobacterium tuberculosis, read-out: MIC Mtb. Praha 131 (XDR-TB)
[5] = biological target: T1, mycobacterial isocitrate lyase (ICL1, Rv0467) (Mycobacterium tuberculosis, UniProt P9WKK7); test: Isocitrate lyase inhibition assay (ICL1); assay type: biochemical, Mycobacterium tuberculosis H37Rv; settings: 10 μmol/L; read-out: % ICL inhibition at 10 μmol/L (± standard deviation)
T1 construct: His tag (from pET-28b(+)); made in house; host or cells: E. coli BL21(DE3), pET-28b(+) plasmid
T1 sequence (P9WKK7 1-428): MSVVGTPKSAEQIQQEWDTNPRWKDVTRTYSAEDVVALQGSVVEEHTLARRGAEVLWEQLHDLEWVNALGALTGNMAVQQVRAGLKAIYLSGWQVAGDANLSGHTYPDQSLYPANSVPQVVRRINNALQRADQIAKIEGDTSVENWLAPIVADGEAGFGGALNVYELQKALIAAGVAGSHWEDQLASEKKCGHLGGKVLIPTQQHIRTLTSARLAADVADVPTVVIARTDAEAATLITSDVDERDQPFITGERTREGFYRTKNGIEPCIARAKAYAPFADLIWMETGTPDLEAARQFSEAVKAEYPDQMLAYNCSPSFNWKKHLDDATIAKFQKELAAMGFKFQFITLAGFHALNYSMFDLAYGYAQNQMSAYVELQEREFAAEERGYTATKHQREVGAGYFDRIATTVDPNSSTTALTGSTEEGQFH

HepG2 cells = test: Cytotoxicity evaluation (CellTiter 96 MTS); assay type: cell-based, human; settings: read-out: IC50 HepG2
Experimental: Seven esters and their parent salicylanilides with the most robust antimicrobial activity were tested for cytotoxicity in the human hepatocellular liver carcinoma cell line HepG2 (passages 21–24; ECACC, Salisbury, UK) using a standard colorimetric method measuring a tetrazolium salt reduction (CellTiter(R) 96 AQueous One Solution Assay, Promega G3580, Madison, WI, USA).
The cells were routinely cultured in Minimum Essentials Eagle Medium (Sigma-Aldrich, Darmstadt, Germany) supplemented with 10% foetal bovine serum (PAA; Biotech, Prague, Czech Republic), 1% of L-glutamine solution (Sigma-Aldrich), and non-essential amino acids solution (Sigma-Aldrich) in a humidified atmosphere containing 5% CO2 at 37 °C. For subculturing, the cells were harvested after trypsin/EDTA (Sigma-Aldrich) treatment at 37 °C. The cells treated with the tested substances were used as experimental groups. Untreated HepG2 cells were used as control groups.
The cells were seeded in density 1 × 10^4 cells per well in a 96-well plate with microscopic control. Next day, the cells were treated with each of the tested substances. […] The most of the tested compounds were prepared in incubation concentrations of 0.01–20 µM in triplicates. 4-(Trifluoromethyl)benzoic acid was applied in the concentrations of 10–4,000 µM in triplicates. The following types of controls were included: determination of 100% viability and 0% viability (the cells treated by 10% DMSO), no cell control and vehiculum controls. These checking samples were prepared in triplicates.
The treated cells were incubated together with controls at 37 °C for 24 h in 5% CO2 atmosphere. After this time reagent from the kit CellTiter 96 AQueous One Solution Cell Proliferation Assay was added. The CellTiter 96 assay is based on the reduction of tetrazolium salt MTS [3-(4,5-dimethylthiazol-2-yl)-5-(3-carboxymethoxyphenyl)-2-(4-sulfophenyl)-2H-tetrazolium] to water-soluble formazan dye by metabolically active cells. The reduction of the reagent is attributed to availability of NADH or NADPH. The decline in levels of these metabolically important compounds in the cell causes that the production of formazan is reduced. The tested plate was incubated for 2 h at 37 °C and 5% CO2 and after this time, the absorbance was recorded at 490 nm using a 96-well plate reader (TECAN, Infinite M200, Grödig, Austria).
The results were expressed as inhibitory concentration which is necessary to inhibit cell viability to 50% from the maximal (control) viability (IC50). A standard toxicological parameter IC50 was calculated in each of the tested substances using GraphPad Prism software (version 5.02; GraphPad Software Inc., San Diego, CA, USA).

[6] = system: Enterococcus sp. J 14365/08; test: Antibacterial microdilution broth method; assay type: cell-based; settings: read-out: MIC/IC90 Enterococcus sp. J 14365/08
Experimental: (§1) The in vitro antibacterial activity was assayed against eight Gram-positive and Gram-negative strains: Staphylococcus aureus CCM 4516/08, methicillin-resistant Staphylococcus aureus H 5996/08 (MRSA), Staphylococcus epidermidis H 6966/08, Enterococcus sp. J 14365/08; Escherichia coli CCM 4517, Klebsiella pneumoniae D 11750/08, ESBL-positive Klebsiella pneumoniae J 14368/08, and Pseudomonas aeruginosa CCM 1961.
(§2) The microdilution broth method modified according to standard M07-A07 in Mueller-Hinton broth (HiMedia Laboratories, Mumbai, India) adjusted to pH 7.4 (±0.2) was used. The tested compounds were dissolved in DMSO to the final concentrations ranging from […]. Benzylpenicillin (penicillin G) was used as a comparative drug. Bacterial inoculum in sterile water was prepared to match 0.5 McFarland scale ([…]). The minimum inhibitory concentrations were assayed as 90% (IC90) or higher reduction of growth when compared to the control. The determination of results was performed visually and spectrophotometrically (at 540 nm). The values of MICs were determined after 24 and 48 h of incubation in the darkness at 35 °C (±0.1) in a humid atmosphere.

[7] = system: Escherichia coli CCM 4517; test: Antibacterial microdilution broth method; assay type: cell-based; settings: read-out: MIC/IC90 E. coli CCM 4517
Experimental: as §1, §2

[8] = system: Staphylococcus aureus CCM 4516/08; test: Antibacterial microdilution broth method; assay type: cell-based; settings: read-out: MIC/IC90 S. aureus CCM 4516/08
Experimental: as §1, §2

[9] = system: Staphylococcus epidermidis H 6966/08; test: Antibacterial microdilution broth method; assay type: cell-based; settings: read-out: MIC/IC90 S. epidermidis H 6966/08
Experimental: as §1, §2

[10] = system: methicillin-resistant Staphylococcus aureus H 5996/08 (MRSA); test: Antibacterial microdilution broth method; assay type: cell-based; settings: read-out: MIC/IC90 MRSA H 5996/08
Experimental: as §1, §2

Compound	MIC ([1]; 336 h, 14 d) [µM]	MIC ([1]; 504 h, 21 d) [µM]	MIC ([2]; 330/88, 336 h, 14 d) [µM]	MIC ([2]; 330/88, 504 h, 21 d) [µM]	MIC ([3]; 235/80, 168 h, 7 d) [µM]	MIC ([3]; 235/80, 336 h, 14 d) [µM]	MIC ([3]; 235/80, 504 h, 21 d) [µM]	MIC ([4]; 168 h, 7 d) [µM]	MIC ([4]; 336 h, 14 d) [µM]	MIC ([4]; 504 h, 21 d) [µM]	MIC (Mtb. 7357/1988; 336 h) [µM]	MIC (Mtb. 7357/1988; 504 h) [µM]	MIC (Mtb. 9449/2006; 336 h) [µM]	MIC (Mtb. 9449/2006; 504 h) [µM]	MIC (Mtb. 53/2009; 336 h) [µM]	MIC (Mtb. 53/2009; 504 h) [µM]	MIC (Mtb. 234/2005; 336 h) [µM]	MIC (Mtb. 234/2005; 504 h) [µM]	MIC (Mtb. Praha 1; 336 h) [µM]	inhibition at 10 µM [5] [%]	also measured
O=C(Oc1cc(Cl)ccc1C(=O)Nc1ccc(Cl)c(Cl)c1)c1ccc(C(F)(F)F)cc1 [1f]	1 (≈ 0.489 µg/mL)	2 (≈ 0.977 µg/mL)	2 (≈ 0.977 µg/mL)	8 (≈ 3.91 µg/mL)	1 (≈ 0.489 µg/mL)	2 (≈ 0.977 µg/mL)	4 (≈ 1.95 µg/mL)	1 (≈ 0.489 µg/mL)	2 (≈ 0.977 µg/mL)	4 (≈ 1.95 µg/mL)	2 (≈ 0.977 µg/mL)	2 (≈ 0.977 µg/mL)	2 (≈ 0.977 µg/mL)	2 (≈ 0.977 µg/mL)	2 (≈ 0.977 µg/mL)	2 (≈ 0.977 µg/mL)	1 (≈ 0.489 µg/mL)	2 (≈ 0.977 µg/mL)	1 (≈ 0.489 µg/mL)	17 ± 1.6	MIC (Mtb. Praha 1; 504 h): 2 µM (≈ 0.977 µg/mL); MIC (Mtb. Praha 131 (XDR-TB); 336 h): 1 µM (≈ 0.489 µg/mL); MIC (Mtb. Praha 131 (XDR-TB); 504 h): 2 µM (≈ 0.977 µg/mL); IC50 (HepG2 cells; Homo sapiens, HepG2, 24 h): 4460 nM
O=C(Oc1ccc(Cl)cc1C(=O)Nc1ccc(Br)cc1)c1ccc(C(F)(F)F)cc1 [1i]	2 (≈ 0.997 µg/mL)	2 (≈ 0.997 µg/mL)	8 (≈ 3.99 µg/mL)	8 (≈ 3.99 µg/mL)	1 (≈ 0.499 µg/mL)	4 (≈ 1.99 µg/mL)	8 (≈ 3.99 µg/mL)	2 (≈ 0.997 µg/mL)	8 (≈ 3.99 µg/mL)	8 (≈ 3.99 µg/mL)	2 (≈ 0.997 µg/mL)	4 (≈ 1.99 µg/mL)	2 (≈ 0.997 µg/mL)	4 (≈ 1.99 µg/mL)	4 (≈ 1.99 µg/mL)	4 (≈ 1.99 µg/mL)	2 (≈ 0.997 µg/mL)	2 (≈ 0.997 µg/mL)	2 (≈ 0.997 µg/mL)	18 ± 1.2	MIC (Mtb. Praha 1; 504 h): 2 µM (≈ 0.997 µg/mL); MIC (Mtb. Praha 131 (XDR-TB); 336 h): 2 µM (≈ 0.997 µg/mL); MIC (Mtb. Praha 131 (XDR-TB); 504 h): 2 µM (≈ 0.997 µg/mL)
O=C(Oc1ccc(Cl)cc1C(=O)Nc1ccc(F)cc1)c1ccc(C(F)(F)F)cc1 [1m]	8 (≈ 3.5 µg/mL)	8 (≈ 3.5 µg/mL)	16 (≈ 7 µg/mL)	32 (≈ 14 µg/mL)	4 (≈ 1.75 µg/mL)	16 (≈ 7 µg/mL)	16 (≈ 7 µg/mL)	8 (≈ 3.5 µg/mL)	16 (≈ 7 µg/mL)	16 (≈ 7 µg/mL)										≥ 20	MIC ([6]; SP.J14365/08, 24 h): 500 µM (≈ 219 µg/mL); MIC ([6]; SP.J14365/08, 48 h): > 500 µM; MIC ([7]; CCM4517, 24 h): > 500 µM; MIC ([7]; CCM4517, 48 h): > 500 µM; MIC ([8]; CCM4516, 24 h): 7.81 µM (≈ 3.42 µg/mL); MIC ([8]; CCM4516, 48 h): 7.81 µM (≈ 3.42 µg/mL); MIC ([9]; H6966/08, 24 h): 31.2 µM (≈ 13.7 µg/mL); MIC ([9]; H6966/08, 48 h): > 500 µM; MIC ([10]; 24 h): 15.6 µM (≈ 6.84 µg/mL); MIC ([10]; 48 h): 15.6 µM (≈ 6.84 µg/mL)
CC1(C)S[C@@H]2[C@H](NC(=O)Cc3ccccc3)C(=O)N2[C@H]1C(=O)O [PNC, benzylpenicillin, reference compound]																					MIC ([6]; SP.J14365/08, 24 h): 7.81 µM (≈ 2.61 µg/mL); MIC ([6]; SP.J14365/08, 48 h): 15.6 µM (≈ 5.22 µg/mL); MIC ([7]; CCM4517, 24 h): > 500 µM; MIC ([7]; CCM4517, 48 h): > 500 µM; MIC ([8]; CCM4516, 24 h): 0.98 µM (≈ 0.328 µg/mL); MIC ([8]; CCM4516, 48 h): 0.98 µM (≈ 0.328 µg/mL); MIC ([9]; H6966/08, 24 h): 250 µM (≈ 83.6 µg/mL); MIC ([9]; H6966/08, 48 h): 250 µM (≈ 83.6 µg/mL); MIC ([10]; 24 h): 62.5 µM (≈ 20.9 µg/mL); MIC ([10]; 48 h): 125 µM (≈ 41.8 µg/mL)
O=C(Nc1ccc(Cl)c(Cl)c1)c1cc(Cl)ccc1O [SAL-1]																					IC50 (HepG2 cells; 24 h, cytotoxicity): 840 nM
